Results on 36 molecules are retold here after patent US20250114361A1, “PYRAZOLOPYRIMIDINE COMPOUND AND PHARMACEUTICAL USE THEREOF” (Japan Tobacco Inc., priority 2022, published 2025).

The test system of one experiment is intra-articular urate-injected arthritis model.
Test: not given
Conditions: in vivo; cited from earlier work.
In the case of `CS(=O)(=O)CCC#N` [OLT1177], the arthritis entry is “suppressed arthritis”.

The target of another experiment is NLRP3 inflammasome (Homo sapiens (Human), UniProt Q96P20). Nature of the experiment: NLRP3 inflammasome inhibitory activity: inhibition of IL-1β production in THP1-Null cells (PMA, LPS, Nigericin). The format is cell-based. Conditions: Nigericin 7.5 μmol/L. How it is done: The NLRP3 inflammasome inhibitory activity of test compounds were evaluated on the basis of the inhibitory activity of the IL-1β production in THP1-Null cells (Product Number: thp-null, InvivoGen). Cells were maintained for culture in RPMI-1640 media containing 10% (v/v) fetal bovine serum, 25 mmol/L HEPES, 100 U/mL penicillin, 100 μg/mL streptomycin, 100 μg/mL normocin, and 200 μg/mL hygromycin B (set at 37° C., 5% CO2/95% air).
Chain of NLRP3 inflammasome (Q96P20 whole entry): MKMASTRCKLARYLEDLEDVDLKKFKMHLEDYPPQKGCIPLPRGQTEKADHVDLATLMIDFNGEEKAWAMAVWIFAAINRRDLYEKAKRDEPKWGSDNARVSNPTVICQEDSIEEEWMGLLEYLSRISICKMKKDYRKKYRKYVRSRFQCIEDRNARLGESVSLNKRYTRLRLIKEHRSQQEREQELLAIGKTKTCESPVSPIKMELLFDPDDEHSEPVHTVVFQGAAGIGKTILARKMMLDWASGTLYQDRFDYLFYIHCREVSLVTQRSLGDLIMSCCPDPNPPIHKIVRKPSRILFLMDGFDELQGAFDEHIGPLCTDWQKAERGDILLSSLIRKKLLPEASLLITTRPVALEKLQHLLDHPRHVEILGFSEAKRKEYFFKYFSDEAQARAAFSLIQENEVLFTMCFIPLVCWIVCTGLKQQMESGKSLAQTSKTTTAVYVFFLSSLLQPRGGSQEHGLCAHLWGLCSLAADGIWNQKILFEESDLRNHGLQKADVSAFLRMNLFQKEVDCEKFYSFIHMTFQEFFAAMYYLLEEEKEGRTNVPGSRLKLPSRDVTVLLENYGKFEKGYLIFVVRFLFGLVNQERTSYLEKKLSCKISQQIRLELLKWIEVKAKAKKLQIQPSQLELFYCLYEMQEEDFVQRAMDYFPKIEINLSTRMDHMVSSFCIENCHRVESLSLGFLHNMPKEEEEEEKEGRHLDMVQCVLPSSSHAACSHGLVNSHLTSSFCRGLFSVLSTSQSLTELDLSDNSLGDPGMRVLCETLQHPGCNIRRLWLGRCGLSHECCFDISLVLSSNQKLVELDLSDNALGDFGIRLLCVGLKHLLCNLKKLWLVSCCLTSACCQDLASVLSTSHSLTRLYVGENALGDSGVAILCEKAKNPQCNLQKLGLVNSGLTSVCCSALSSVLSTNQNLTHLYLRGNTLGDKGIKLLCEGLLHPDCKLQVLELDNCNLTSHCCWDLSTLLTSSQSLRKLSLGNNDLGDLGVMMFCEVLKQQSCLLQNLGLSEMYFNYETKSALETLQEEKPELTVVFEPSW
Cells were suspended with media for assay containing 0.5 μmol/L PMA (RPMI-1640 media containing 10% (v/v) fetal bovine serum, 100 U/mL penicillin, and 100 μg/mL streptomycin), and the suspended cells were seeded on Corning (registered trademark) 384-well Flat Clear Bottom Black Polystyrene TC-treated Microplates (25,000 cells/25 μL/well), followed by incubation (set at 37° C., 5% CO2/95% air) overnight. The supernatant of the culture was removed, and thereto was added media for assay (25 μL/well) containing 1 μg/mL Lipopolysaccharides (Product Number: L2654, Sigma-Aldrich (registered trademark)). Then, the culture was further incubated for 3 hours (set at 37° C., 5% CO2/95% air). The supernatant of the culture was removed. Then, a vehicle solution prepared from Opti-MEM (trademark) medium (Product Number: 31985-070, Invitrogen) was added to blank-setting wells and control-setting wells (20 μL/well), followed by incubation for 15 minutes (set at 37° C., 5% CO2/95% air). A solution containing a test compound (20 μL/well) was added to test compound-setting wells. Further, Opti-MEM (trademark) medium containing Nigericin (Product Number: N7143, Sigma-Aldrich (registered trademark)) was added to the control-setting wells and test compound-setting wells (5 μL/well), followed by incubation for 1.5 hours (set at 37° C., 5% CO2/95% air). The final concentration of Nigericin was adjusted to be 7.5 μmol/L. 5 μL/well of Opti-MEM (trademark) medium was added to the blank-setting wells. The supernatant of the culture was cryonically stored (set at −20° C.) until measurement of IL-1β.
The amount of IL-1β in the culture supernatant was quantitated with AlphaLISA (registered trademark) Human IL-1β Detection Kit (Product Number: AL220C, Perkin Elmer). Fluorescence intensity was measured with a microplate reader EnSpier (Model number: 2300-00J, Perkin Elmer) or EnSight (Model number: HH34000000, Perkin Elmer) according to procedure manuals attached thereto. Inhibition rates of the test compound-setting wells were calculated on the basis of 100% for the blank-setting wells and 0% for the control-setting wells. IC50 values (i.e., 50% inhibitory concentrations) of the test compounds were calculated by logistic regression analysis.
For `Cc1cc(Br)cc(C)c1-n1cc2c(=O)[nH]c(-c3cnccn3)nc2n1` [Example 22], it took 68 nM to reach half-maximal inhibition (IC50).
Still for that read-out and setting: the result for `Cc1cc(C(C)(F)F)cc(C)c1-n1cc2c(=O)[nH]c(-c3cn(C)cn3)nc2n1` [Example 41, 2-{4-(1,1-difluoroethyl)-2,6-dimethylphenyl}-6-(1-methyl-1H-imidazol-4-yl)-2,5-dihydro-4H-pyrazolo[3,4-d]pyrimidin-4-one] reads 40 nM; that for `Cc1cc(I)cc(C)c1-n1cc2c(=O)[nH]c(-c3ccn(C)n3)nc2n1` [Example 48], 2.5 nM; that for `Cc1ncc(-c2nc3nn(-c4c(C)cc(Br)cc4C)cc3c(=O)[nH]2)o1` [Example 24], 53 nM.
Still for that read-out and setting: the result for `Cc1cc(C(C)(F)F)cc(C)c1-n1cc2c(=O)[nH]c(-c3nc[nH]n3)nc2n1` [Example 60] reads 390 nM; that for `Cc1cc(Br)cc(C)c1-n1cc2c(=O)[nH]c(-c3cc(C(F)(F)F)ncn3)nc2n1` [Example 31], 940 nM.
The same measure, in the same setting: the result for `Cc1cc(C2CC2)cc(C)c1-n1cc2c(=O)[nH]c(-c3cnn(C)c3)nc2n1` [Example 47] reads 6.7 nM; that for `Cc1cc(C2CC2)cc(C)c1-n1cc2c(=O)[nH]c(-c3ccnnc3)nc2n1` [Example 28], 11 nM.
Regarding `Cc1cc(C2(F)CC2)cc(C)c1-n1cc2c(=O)[nH]c(-c3ccn(C)n3)nc2n1` [Example 46], inhibition was half-maximal at 3.1 nM (IC50).
On the same count and under the same terms, the result for `Cc1cc(C2CC2)cc(C)c1-n1cc2c(=O)[nH]c(-c3cc4n(n3)CCOC4)nc2n1` [Example 54] reads 9 nM; that for `Cc1cc(C2CC2)cc(C)c1-n1cc2c(=O)[nH]c(-c3nn(C)cc3F)nc2n1` [Example 38], 15 nM; that for `Cc1cc(C2CC2)cc(C)c1-n1cc2c(=O)[nH]c(-c3ccncc3F)nc2n1` [Example 36], 16 nM.
The same measure, in the same setting: the result for `Cc1cc(Br)cc(C)c1-n1cc2c(=O)[nH]c(-c3nn(C)cc3F)nc2n1` [Example 37] reads 36 nM.
Same read-out and setting: the result for `COCCn1nccc1-c1nc2nn(-c3c(C)cc(Br)cc3C)cc2c(=O)[nH]1` [Example 17] reads 220 nM; that for `COCCn1ccc(-c2nc3nn(-c4c(C)cc(C5CC5)cc4C)cc3c(=O)[nH]2)n1` [Example 20], 23 nM; that for `Cc1cc(OC(F)F)cc(C)c1-n1cc2c(=O)[nH]c(-c3ccn(C)n3)nc2n1` [Example 9], 49 nM.
`Cc1cc(Br)cc(C)c1-n1cc2c(=O)[nH]c(-c3cccnn3)nc2n1` [Example 23]: it took 22 nM to reach half-maximal inhibition (IC50).
Consider `Cc1cc(Br)cc(C)c1-n1cc2c(=O)[nH]c(-c3ccnnc3)nc2n1` [Example 15], for which the half-maximal inhibitory concentration (IC50) – broadly, the concentration needed to halve the response being measured – was 15 nM.
Same read-out and setting: the result for `Cc1cc(C2CC2)cc(C)c1-n1cc2c(=O)[nH]c(-c3cc[nH]n3)nc2n1` [Example 13] reads 29 nM.
On the same count and under the same terms, for `CCn1ccc(-c2nc3nn(-c4c(C)cc(Br)cc4C)cc3c(=O)[nH]2)n1` [Example 30] the value was 40 nM.
With `Cc1cc(C2CC2)cc(C)c1-n1cc2c(=O)[nH]c(-c3cc4n(n3)CCCO4)nc2n1` [Example 55], the half-inhibitory concentration (IC50) turned out to be 24 nM.
Still for that read-out and setting: for `Cc1cc(C2CC2)cc(C)c1-n1cc2c(=O)[nH]c(-c3ccn(C(F)F)n3)nc2n1` [Example 18] the value was 55 nM.
Still for that read-out and setting: for `Cc1cc(C2CC2)cc(C)c1-n1cc2c(=O)[nH]c(-c3ccn(C)n3)nc2n1` [Example 4, 2-(4-cyclopropyl-2,6-dimethylphenyl)-6-(1-methyl-1H-pyrazol-3-yl)-2,5-dihydro-4H-pyrazolo[3,4-d]pyrimidin-4-one] the value was 15 nM; for `Cc1cc(OC(F)F)cc(C)c1-n1cc2c(=O)[nH]c(-c3cccnn3)nc2n1` [Example 27], 62 nM; for `Cn1ccc(-c2nc3nn(-c4cc5c(cc4Cl)OCCC5)cc3c(=O)[nH]2)n1` [Example 56], 84 nM.
Same read-out and setting: the result for `Cc1cc(C(C)(F)F)cc(C)c1-n1cc2c(=O)[nH]c(-c3ccncn3)nc2n1` [Example 42] reads 14 nM; that for `Cc1cc(C2CC2)cc(C)c1-n1cc2c(=O)[nH]c(-c3cn(C)nn3)nc2n1` [Example 26], 12 nM; that for `Cc1cc(C2CC2)cc(C)c1-n1cc2c(=O)[nH]c(-c3cn(C)cn3)nc2n1` [Example 39, 2-(4-cyclopropyl-2,6-dimethylphenyl)-6-(1-methyl-1H-imidazol-4-yl)-2,5-dihydro-4H-pyrazolo[3,4-d]pyrimidin-4-one], 23 nM.
As to `Cc1nnc(-c2nc3nn(-c4c(C)cc(Br)cc4C)cc3c(=O)[nH]2)o1` [Example 14], the IC50 stood at 390 nM.
The same measure, in the same setting: the result for `COc1cc(C)c(-n2cc3c(=O)[nH]c(-c4cnn(C)c4)nc3n2)c(C)c1` [Example 3] reads 110 nM; that for `Cc1csc(-c2nc3nn(-c4c(C)cc(C5CC5)cc4C)cc3c(=O)[nH]2)n1` [Example 50], 6 nM.

The same experiment, now with this note: at 0.3 μM.
As for `Cc1cc(C2(O)CC2)cc(C)c1-n1cc2c(=O)[nH]c(-c3ccn(C)n3)nc2n1` [Example 51], testing at 0.3 µM gave an inhibition of 35%.

Staying with this experiment, now noted: at 2.4 μM.
Regarding `Cc1cc(C2(F)CC2(Cl)Cl)cc(C)c1-n1cc2c(=O)[nH]c(-c3ccn(C)n3)nc2n1` (racemic) [Example 45], 2.4 µM produced 34% inhibition.

The next experiment relates to mouse strain expressing CAPS-related NLRP3 mutations.
Test: not given
The settings on record: in vivo; cited from earlier work.
As to `O=C(O)c1ccc(/C=C2/SC(=S)N(Cc3cccc(C(F)(F)F)c3)C2=O)cc1` [CY-09], the “systemic lethal inflammation and survival” value was “suppressed systemic lethal inflammation and improved the survival”.

The next experiment has as its system MOG35-55EAE model mice.
Test: not given
Conditions: administration after the onset; cited from earlier work.
Turning to `COc1ccc(Cl)cc1C(=O)NCCc1ccc(S(=O)(=O)NO)cc1` [JC-171], the “impairment of motor function” value is “inhibited the impairment of motor function”.
